# Laboratory results taken from ChEMBL document CHEMBL5724914, “Linking interpersonal differences in gut microbiota composition and drug biotransformation activity” (2024).
# How the values were obtained:
# [1] = human gut metagenome, 24 h, 2 µM
# [2] = The drug is tested on WLS-006 corresponding to human gut metagenome with ENA study accession number: PRJEB37062 and ENA sample accession number: ERS12561741 for biotransformation under anaerobic condition. The drug concentrations were measured over 9 timepoints collected between 0 and 24 hours of incubation by liquid-chromatography-coupled mass spectrometry (LC–MS); details: 2 µM
# [3] = human gut metagenome, 24 h, 2 µM; remark: listed apart in the source
# [4] = The drug is tested on Z-020 corresponding to rabbit gut metagenome with ENA study accession number: PRJEB37062 and ENA sample accession number: ERS12561819 for biotransformation under anaerobic condition. The drug concentrations were measured over 9 timepoints collected between 0 and 24 hours of incubation by liquid-chromatography-coupled mass spectrometry (LC–MS); details: 2 µM
# [5] = The drug is tested on WLS-082 corresponding to human gut metagenome with ENA study accession number: PRJEB37062 and ENA sample accession number: ERS12561751 for biotransformation under anaerobic condition. The drug concentrations were measured over 9 timepoints collected between 0 and 24 hours of incubation by liquid-chromatography-coupled mass spectrometry (LC–MS); details: 2 µM
# [6] = human gut metagenome, 24 h, 2 µM; remark: listed apart in the source
# [7] = human gut metagenome, 24 h, 2 µM; remark: listed apart in the source
# [8] = human gut metagenome, 24 h, 2 µM; remark: listed apart in the source
# [9] = human gut metagenome, 24 h, 2 µM; remark: listed apart in the source
# [10] = The drug is tested on WLS-098 corresponding to human gut metagenome with ENA study accession number: PRJEB37062 and ENA sample accession number: ERS12561754 for biotransformation under anaerobic condition. The drug concentrations were measured over 9 timepoints collected between 0 and 24 hours of incubation by liquid-chromatography-coupled mass spectrometry (LC–MS); details: 2 µM
# [11] = The drug is tested on WLS-170 corresponding to human gut metagenome with ENA study accession number: PRJEB37062 and ENA sample accession number: ERS12561762 for biotransformation under anaerobic condition. The drug concentrations were measured over 9 timepoints collected between 0 and 24 hours of incubation by liquid-chromatography-coupled mass spectrometry (LC–MS); details: 2 µM
# [12] = The drug is tested on Z-023 corresponding to metagenome with ENA study accession number: PRJEB37062 and ENA sample accession number: ERS12561822 for biotransformation under anaerobic condition. The drug concentrations were measured over 9 timepoints collected between 0 and 24 hours of incubation by liquid-chromatography-coupled mass spectrometry (LC–MS); details: 2 µM
# [13] = human gut metagenome, 24 h, 2 µM; remark: listed apart in the source
# [14] = human gut metagenome, 24 h, 2 µM; remark: listed apart in the source
# [15] = The drug is tested on WLS-052 corresponding to human gut metagenome with ENA study accession number: PRJEB37062 and ENA sample accession number: ERS12561747 for biotransformation under anaerobic condition. The drug concentrations were measured over 9 timepoints collected between 0 and 24 hours of incubation by liquid-chromatography-coupled mass spectrometry (LC–MS); details: 2 µM
# [16] = The drug is tested on Z-007 corresponding to rat gut metagenome with ENA study accession number: PRJEB37062 and ENA sample accession number: ERS12561807 for biotransformation under anaerobic condition. The drug concentrations were measured over 9 timepoints collected between 0 and 24 hours of incubation by liquid-chromatography-coupled mass spectrometry (LC–MS); details: 2 µM
# [17] = human gut metagenome, 24 h, 2 µM; remark: listed apart in the source
# [18] = The drug is tested on Z-018 corresponding to pig gut metagenome with ENA study accession number: PRJEB37062 and ENA sample accession number: ERS12561817 for biotransformation under anaerobic condition. The drug concentrations were measured over 9 timepoints collected between 0 and 24 hours of incubation by liquid-chromatography-coupled mass spectrometry (LC–MS); details: 2 µM
# [19] = human gut metagenome, 24 h, 2 µM; remark: listed apart in the source
# [20] = The drug is tested on Z-002 corresponding to rabbit gut metagenome with ENA study accession number: PRJEB37062 and ENA sample accession number: ERS12561802 for biotransformation under anaerobic condition. The drug concentrations were measured over 9 timepoints collected between 0 and 24 hours of incubation by liquid-chromatography-coupled mass spectrometry (LC–MS); details: 2 µM
# Note: call rule not given here.
Compound,Bacterial Biotransformation [1],Bacterial Biotransformation [2],Bacterial Biotransformation [3],Bacterial Biotransformation [4],Bacterial Biotransformation [5],Bacterial Biotransformation [6],Bacterial Biotransformation [7],Bacterial Biotransformation [8],Bacterial Biotransformation [9],Bacterial Biotransformation [10],Bacterial Biotransformation [11],Bacterial Biotransformation [12],Bacterial Biotransformation [13],Bacterial Biotransformation [14],Bacterial Biotransformation [15],Bacterial Biotransformation [16],Bacterial Biotransformation [17],Bacterial Biotransformation [18],Bacterial Biotransformation [19],Bacterial Biotransformation [20]
CCCC(=O)Nc1ccc(OCC(O)CNC(C)C)c(C(C)=O)c1 (stereo not given) [ACEBUTOLOL],Compound NOT metabolized,Compound NOT metabolized,Compound metabolized,Compound NOT metabolized,Compound NOT metabolized,Compound metabolized,Compound metabolized,Compound metabolized,Compound metabolized,Compound metabolized,Compound metabolized,Compound metabolized,Compound metabolized,Compound metabolized,Compound NOT metabolized,Compound NOT metabolized,Compound metabolized,Compound NOT metabolized,Compound metabolized,Compound metabolized
C=CCc1ccccc1OCC(O)CNC(C)C (stereo not given) [ALPRENOLOL],Compound NOT metabolized,Compound NOT metabolized,Compound NOT metabolized,Compound NOT metabolized,Compound NOT metabolized,Compound NOT metabolized,Compound metabolized,Compound NOT metabolized,Compound metabolized,Compound metabolized,Compound metabolized,Compound metabolized,Compound metabolized,Compound NOT metabolized,Compound NOT metabolized,Compound NOT metabolized,Compound metabolized,Compound NOT metabolized,Compound metabolized,Compound metabolized
CC(C)c1c(C(=O)Nc2ccccc2)c(-c2ccccc2)c(-c2ccc(F)cc2)n1CC[C@@H](O)C[C@@H](O)CC(=O)O [ATORVASTATIN],Compound metabolized,Compound metabolized,Compound NOT metabolized,Compound NOT metabolized,Compound metabolized,Compound metabolized,Compound NOT metabolized,Compound metabolized,Compound NOT metabolized,Compound metabolized,Compound metabolized,Compound NOT metabolized,Compound metabolized,Compound NOT metabolized,Compound metabolized,Compound NOT metabolized,Compound metabolized,Compound NOT metabolized,Compound metabolized,Compound metabolized
CCOC(=O)[C@H](CCc1ccccc1)N[C@H]1CCc2ccccc2N(CC(=O)O)C1=O [BENAZEPRIL],Compound metabolized,Compound metabolized,Compound metabolized,Compound metabolized,Compound metabolized,Compound metabolized,Compound metabolized,Compound metabolized,Compound metabolized,Compound metabolized,Compound metabolized,Compound metabolized,Compound metabolized,Compound metabolized,Compound metabolized,Compound metabolized,Compound metabolized,Compound metabolized,Compound metabolized,Compound metabolized
NS(=O)(=O)c1cc2c(cc1Cl)N=C(CSCc1ccccc1)NS2(=O)=O [BENZTHIAZIDE],Compound NOT metabolized,Compound NOT metabolized,Compound NOT metabolized,Compound NOT metabolized,Compound NOT metabolized,Compound NOT metabolized,Compound NOT metabolized,Compound NOT metabolized,Compound NOT metabolized,Compound NOT metabolized,Compound NOT metabolized,Compound metabolized,Compound NOT metabolized,Compound NOT metabolized,Compound NOT metabolized,Compound NOT metabolized,Compound NOT metabolized,Compound NOT metabolized,Compound NOT metabolized,Compound metabolized
CC(C)NCC(O)COc1ccc(COCCOC(C)C)cc1.CC(C)NCC(O)COc1ccc(COCCOC(C)C)cc1.O=C(O)/C=C/C(=O)O (stereo not given) [BISOPROLOL FUMARATE],Compound NOT metabolized,Compound metabolized,Compound NOT metabolized,Compound NOT metabolized,Compound NOT metabolized,Compound metabolized,Compound metabolized,Compound NOT metabolized,Compound metabolized,Compound metabolized,Compound metabolized,Compound metabolized,Compound NOT metabolized,Compound NOT metabolized,Compound NOT metabolized,Compound NOT metabolized,Compound NOT metabolized,Compound NOT metabolized,Compound metabolized,Compound metabolized
